Results: patent US20060031949A1, “Inducible expression systems for modulating the expression of target genes in eukaryotic cells and non-human animals” (priority 2004, published 2006)

Columns and labels:
Hif1α [1] = assay: Hif1α knockdown in subcutaneous xenograft tumors (QPCR, IHC), doxycycline in drinking water; format: in vivo, SCID mice; details: D54_Hif25 tumors, 1 mg/ml doxycycline in drinking water for 3 days
Protocol: Mice bearing 200-300 mm^3 tumors were supplied with doxycycline (1 mg/ml) for 3, 6, 9 or 12 days. Tumors were collected at the end of treatment and Hif1α mRNA levels were determined by QPCR. Tumors from mice without Dox treatment were used as controls. […] Hif1α mRNA level was determined by QPCR. […] The Hif1α expression level was examined by IHC, and quantified using AxioVision 4 (Zeiss).
To determine whether target knockdown can be induced in xenograft tumors, the D54_Hif25 cells were injected subcutaneously into SCID mice. After tumors reached an average size of 200 mm^3, the mice were supplied with drinking water containing 1 mg/ml doxycycline to induce the expression of Hif1α shRNA. After treating the mice with doxycycline for 3, 6, 9, or 12 days, the tumors were collected and analyzed by QPCR to determine the Hif1α messenger level. […] Examination of the tumor samples by immunohistochemistry indicated a clear reduction of the Hif1α protein from day 3 onward (data not shown).
To determine whether the ability to induce target knockdown would be impaired over long-term doxycycline treatment or when the tumors reach a very large size, further analysis was performed of the knockdown of Hif1α in tumors from mice treated with doxycycline for 45 days. The average tumor size at the end of treatment was 2000 mm^3. […]

human Hif1α = assay: Western analysis of Hif1α protein in HeLaTREx stable clones carrying 2O2_Hif1, doxycycline induction; format: cell-based
Protocol: Cells were directly lysed on 6-well plates in 1× Laemmli sample buffer. Proteins were separated by SDS-PAGE, transferred to PVDF membrane, and western blotting was performed using antibodies against Chk1 (1:200, Santa Crutz Biotechnology, Santa Crutz, Calif. 95060), HIF-1 alpha (1:500, BD Bioscience, Palo Alto, Calif. 94303) or tetR (1:2000, Mo Bi Tec, Germany).
To determine whether the 2O2 promoter retains the ability to respond to doxycycline after integrating into chromosomes, the inventors used a commercial tetR expressing cell line, HeLaTREx, (Invitrogen Corp., Carlsbad, Calif. 92008) to establish stable clones that carried the 2O2 promoter linked to an shRNA targeting human Hif1α (2O2_Hif1).
Using the best-regulated 2O2_Hif1 clone (Hif1-7), the inventors further characterized the time and dose dependency of doxycycline induction of the 2O2 expression system. […] The doxycycline concentration that is required for maximal induction of the 2O2 system was determined in a dose-response experiment.

Hif1α [2] = assay: Hif1α protein level (western) in D54_Hif clones with or without doxycycline; format: cell-based, human; details: D54_Hif18 cells, 1 μg/ml doxycycline
Protocol: (§1) Cells were incubated in the presence or absence of 1 μg/ml doxycycline. After thirty-six hours, cells were either untreated (N) or subjected to hypoxia treatment (H) for an additional sixteen hours. The cells were lysed and analyzed by western blotting using antibodies against Hif1α (upper panel) or Hif1β (lower panel). […] Cells were transfected with either pGL3-control/pRL-TK (left panel) or 1×HRE/pRL-TK plasmids (right panel) in the presence or absence of 1 μg/ml doxycycline. Thirty-six hours following transfection, cells were subjected to hypoxia treatment. Luciferase activities were determined sixteen hours after hypoxia treatment. […] Cells were incubated in the presence or absence of 1 μg/ml doxycycline. After thirty-six hours, cells were either untreated (N) or subjected to hypoxia treatment (H) for an additional sixteen hours. Total RNA were prepared and used in quantitative PCR for analyzing the level of the indicated genes.
(§2) To assess the potential therapeutic effect of Hif1 inhibition, we established stable cell lines from D54MG parental cells that express an shRNA against Hif1α under the control of doxycycline. A panel of 8 shRNAs against Hif1α was first screened for their abilities to knockdown the target (data not shown), and the best shRNA was selected for the creation of Hif1α knockdown cell lines. […]

[3] = tested on: Hif1 dependent transcriptional activity; assay: Hif1 reporter (1×HRE) luciferase activity in D54_Hif clones; format: cell-based, human; details: D54_Hif25 cells, 1 μg/ml doxycycline, hypoxia
Protocol: as §1, §2

tyrosinase = assay: Tyrosinase knockdown mice by pronuclear injection of 2O2 promoter transgenes; format: in vivo; details: mice without tetR expression
Protocol: Pronuclear injection is a well-established method for creating transgenic animals. In this approach, a DNA fragment (the transgene) is injected into the pronuclear stage of fertilized eggs, and the injected eggs are implanted into pseudopregnant animals. In a typical experiment, 50-80 eggs are injected in which half of the injected eggs will survive to generate neonates and 5%-20% of the neonates will contain the transgene.
Tyrosinase was selected as a target to knockdown. Tyrosinase is a key enzyme in melanin production, and the knockdown of tyrosinase in mice will generate an apparent coat color change.
To determine whether a modified pol III dependent promoter, such as the 2O2 promoter, is suitable for the creation of knockdown animals, transgenes were created that used the 2O2 promoters to express the two best shRNAs against tyrosinase (2O2-Tyr731 (SEQ ID NO: 46) and 2O2-Tyr338 (SEQ ID NO: 47)). These transgenes are shown below. The bold characters represent the shRNA sequences and the underscored characters represent the promoter sequences. […] In mice without tetR expression, the 2O2 promoter is expected to be constitutively active.

C[C@H]1c2cccc(O)c2C(=O)C2=C(O)[C@]3(O)C(=O)C(C(N)=O)=C(O)[C@@H](N(C)C)[C@@H]3[C@@H](O)[C@@H]21 [doxycycline]
reduction of the Hif1α mRNA in tumors (Hif1α [1]): 80%
inhibition of Hif-1 protein (human Hif1α; clone Hif1-7, 0.1 ng/ml of doxycycline): more than 90%
inhibition of Hif-1 protein (human Hif1α; clone Hif1-7, 24 hours after doxycycline treatment): more than 90%
doxycycline concentration at which maximal inhibition of Hif1α protein was reached (human Hif1α; clone Hif1-7, dose-response experiment): 10 ng/mL
reduction of the Hif1α protein (Hif1α [2]): 80%
reduction of the Hif1 reporter activity [3]: 80%

B1: 2O2-Tyr338: transgene using the 2O2 promoter to express an shRNA against tyrosinase (SEQ ID NO: 47) (nucleic acid)
DNA: GAATTCCAGGCAAAACGCACCACGTGACGGAGCGTGACCGCGCGCCGAGCGCGCGCCAAGGTCGGGCAGGAAGAGGGCCTATTTCCCATGATTCCATCATATTTGCATATACGATACAAGGCTGTTAGAGAGATAATTAGAATTAATTCGACTGTAAACACAAAGATATTAGTATAAAATACGTGACGTAGAAAGTAATAATTTCTTGGGTAGTTTGCAGTTTTAAAATTATGTTTTAAAATGGACTATCATATGCTTACCGTAACTTGAAACTCCCTATCAGTGATAGAGATTATATATCTCCCTATCAGTGATAGAGACCGGCAACTTCATGGGTTTCATTCAAGAGATGAAACCCATGAAGTTGCCTTTTTTAAGCTT
modifications: 2O2 promoter transgene; 2O2-Tyr338
viability of transgene-positive embryos (tyrosinase; 40 pups without transgene, two dead embryos with it): embryonic lethality

B2: 2O2-Tyr731: transgene using the 2O2 promoter to express an shRNA against tyrosinase (SEQ ID NO: 46) (nucleic acid)
DNA: GAATTCCAGGCAAAACGCACCACGTGACGGAGCGTGACCGCGCGCCGAGCGCGCGCCAAGGTCGGGCAGGAAGAGGGCCTATTTCCCATGATTCCATCATATTTGCATATACGATACAAGGCTGTTAGAGAGATAATTAGAATTAATTCGACTGTAAACACAAAGATATTAGTATAAAATACGTGACGTAGAAAGTAATAATTTCTTGGGTAGTTTGCAGTTTTAAAATTATGTTTTAAAATGGACTATCATATGCTTACCGTAACTTGAAACTCCCTATCAGTGATAGAGATTATATATCTCCCTATCAGTGATAGAGACCGTGACATTTGCACAGATGATTCAAGAGATCATCTGTGCAAATGTCACTTTTTTAAGCTT
modifications: 2O2-Tyr731
coat color of transgene-positive pups (tyrosinase; three of 20 pups carried the transgene): different degrees of coat color change
